Where a name gives a salt, the structure may show the parent alone.

The subject of assay [1] is β-catenin/TCF4 transcriptional activity. Description: 7TGC reporter assay. It counts as cell-based, human. Particulars: PANC-1 cells, EGF (100 ng/mL) or CQ (100 μM). A general note: In a reporter assay the amount or activity of a reporter protein is the signal.
Description: The PCR products of STYK1, GSK3β, and Axin1 were cloned into pcDNA3.1-3×HA, pCMV-3×Flag (Sigma, E4401), and pCMV-mCherry (constructed by our lab) respectively. […] To make STYK1, β-catenin, GSK3β, or BLK mutants or truncations, a series of forwarding primers harboring the desired mutations were used in PCRs. The nucleotide sequences of all constructs were confirmed by DNA sequencing. […] DNA and interference RNA were transfected with Lipofectamine 3000 (Invitrogen, L3000015) according to the manufacturer’s instructions. shRNA for STYK1 #1: 5ʹ- [sequence] -3ʹ. #2: 5ʹ- [sequence] -3ʹ. siRNA for STYK1 was 5ʹ- [sequence] -3ʹ. siRNA for β-catenin was 5ʹ- [sequence] -3ʹ. siRNA for HRS was 5ʹ- [sequence] -3ʹ, siRNA for VPS24 was 5ʹ- [sequence] -3ʹ.
A further assay relates to CyclinD1/Axin2/C-myc. Description: Wnt target gene expression (western blot, qRT-PCR). It counts as cell-based, human. Particulars: PANC-1 cells, EGF (100 ng/mL) or CQ (100 μM). On the procedure:
Whole-cell extracts were prepared with 1% sodium dodecyl sulfate lysis buffer with freshly added 1% proteinase inhibitor cocktail (Biomake, B14001) and 1 mM phenylmethylsulfonyl fluoride (PMSF, MCE, HY-B0496). Western blot was performed as described previously.[20]
Total RNA was extracted from cultured pancreatic cancer cells using Trizol reagent (Invitrogen) according to the manufacturer’s protocol. qRT-PCR was performed as previously described.^3 The mRNA expression level for each sample was normalized to the expression of GAPDH using the 2 ^-ΔΔct method^4 with three biological replicates of comparative qRT-PCR. The following primer sequences were used for qRT-PCR: GAPDH, (forward) 5′- […] -3′ and (reverse) 5′- […] -3′; CyclinD1, (forward) 5′- […] -3′ and (reverse) 5′- […] -3′; C-myc, (forward) 5′- […] -3′ and (reverse) 5′- […] -3′; Axin2, (forward) 5′- […] -3′ and (reverse) 5′- […] -3′; STYK1, (forward) 5′- […] -3′ and (reverse) 5′- […] -3′. Amplification was performed in an ABI Q3 real-time PCR system using a SYBR Green master mix (YEASEN, 11201ES08).
(In general: A western blot detects proteins with antibodies after separation by electrophoresis.)

For a further assay, the system named is PANC-1 xenograft. Description: PANC-1 xenograft in nude mice. It counts as in vivo, mouse.
Assay [2] relates to Wnt/β-catenin signaling in colorectal cancer. Conditions: cited from earlier work. From the text:
Continuously activated Wnt/β-catenin signaling via genetic or epigenetic ways, serves as a potent oncogenic driver across malignancies, spurring intensive efforts to develop targeted inhibitors. Nonetheless, tissue homeostasis and regeneration could be impaired upon the blockade of Wnt signaling, which needs to be resolved and limits Wnt-based therapies. Recent breakthroughs have unmasked tumor-specific vulnerabilities, identifying cancer-cell-restricted regulators that fine-tune Wnt signaling outputs, offering promising avenues for selectively crippling oncogenic Wnt activity.[59] For example ...

For the next assay, the system named is Wnt/β-catenin signaling. Description: STYK1-mediated Wnt/β-catenin signaling, PANC-1 cells. It counts as cell-based, human. On the procedure:
(§1) Whole-cell extracts were prepared with 1% sodium dodecyl sulfate lysis buffer with freshly added 1% proteinase inhibitor cocktail (Biomake, B14001) and 1 mM phenylmethylsulfonyl fluoride (PMSF, MCE, HY-B0496). Western blot was performed as described previously.[20] The following primary antibodies were used: anti-phospho-β-catenin (Ser33/37/Thr41) (9561, Cell Signaling Technology), anti-β-catenin (51067-2-AP, Proteintech), anti-β-TrCP (4394, Cell Signaling Technology), anti-Non-phospho (Active) β-catenin (Ser33/37/Thr41) (8814, Cell Signaling Technology), anti-STYK1 (862318, zenbio), anti-C-myc (10828-1-AP, Proteintech), anti-CyclinD1 (60186-1-Ig, Proteintech), anti-Axin2 (20540-1-AP, Proteintech), anti-mouse HA (M180-3, EMD Millipore), anti-Rabbit HA (51064-2-AP, Proteintech), anti-mouse […] (M185, MBL), anti-Rabbit […] […]

The subject of the next assay is p62 and LC3. Description: Autophagic flux markers p62 and LC3, PANC-1 cells (western blot). It counts as cell-based, human. On the procedure: as §1
The subject of assay [3] is STYK1 Y191 phosphorylation by BLK kinase. Description: STYK1 tyrosine phosphorylation by BLK (IP-Western / in vitro kinase assay). Conditions: HEK293T cells, BLK overexpression; GST-STYK1 ICD and HA-BLK kinase reactions. It counts as biochemical. On the procedure:
as §1
GST affinity-isolation assay was performed as described previously.[18] […] Surface plasmon resonance analysis (Biacore T200) quantified binding kinetics between GST-β-catenin/GSK3β and synthetic α-helical peptides, with dissociation constants calculated via BIA evaluation software.

Protocol for PANC-1 xenograft: PANC-1 xenograft tumors were further established in nude mice via subcutaneous hindlimb injection (Fig. 8e). 25 mg/kg STYK1-driving peptides were intraperitoneally injected twice a week after the subcutaneous tumor formed.
(2) Mouse subcutaneous xenograft experiments were carried out as previously described.[25] Female BALB/c nude mice (4-week-old, 18–22 g) were sourced from Hunan SJA Laboratory Animal (Cat: hnslkjd006; Changsha, China) and housed under SPF conditions with routine health surveillance.

With `CCN(CC)CCCC(C)Nc1ccnc2cc(Cl)ccc12` (stereo not shown) [CQ, chloroquine diphosphate salt], the “Wnt signaling in the 7TGC system” value in assay [1] is given as “decreased Wnt signaling in the 7TGC system”. Also, the “STYK1-mediated alteration of the Wnt/β-catenin target genes C-myc, Axin2” value in the assay with CyclinD1/Axin2/C-myc is given as “down-regulated STYK1-mediated alteration of the Wnt/β-catenin target genes C-myc, Axin2”. With `Oc1nc(-c2ccc(C(F)(F)F)cc2)nc2c1CSCC2` [XAV939], the “tumor growth (methods statement)” value in the assay on PANC-1 xenograft (BALB/c nude mice, PANC-1 xenografts, biweekly intraperitoneal, synthetic peptides (25 mg/kg)) is “reduced tumor growth”. Besides, the “STYK1-mediated xenograft tumor growth” value in the assay with PANC-1 xenograft (PANC-1 xenografts with STYK1 WT or mutants, nude mice, n = 3) is “suppressed STYK1-mediated xenograft tumor growth, including mutant variants”.

For the molecule `C/C=C/[C@H]1O[C@@](O)([C@@H](C)[C@H](O)[C@H](C)[C@H]2OC(=O)/C(OC)=C/C(C)=C/[C@@H](C)[C@@H](O)[C@@H](CC)[C@@H](O)[C@H](C)C/C(C)=C/C=C/[C@@H]2OC)C[C@@H](O)[C@@H]1C` [concanamycin], the “inhibition of Wnt/β-catenin signaling” value in assay [2] is “marked inhibition of Wnt/β-catenin signaling in colorectal cancer”.

`O=C(N/N=C/c1ccc(O)c(O)c1)c1cc2ccccc2cc1O` [dynasore]: the “STYK1-mediated activation of Wnt/β-catenin signaling” value in the assay with Wnt/β-catenin signaling is on record as “significantly blocked STYK1-mediated activation of Wnt/β-catenin signaling”. In addition, in the assay with p62 and LC3, the “level of LC3” value is reported as “decreased” and the “level of p62” value is reported as “increased”. Consider `CN1CCN(CCOc2cc(OC3CCOCC3)c3c(Nc4c(Cl)ccc5c4OCO5)ncnc3c2)CC1` [saracatinib], for which, in assay [3], the “BLK-mediated phosphorylation of STYK1 Y191” value is “saracatinib inhibition”. With bafilomycin, the “inhibition of Wnt/β-catenin signaling” value in assay [2] was “marked inhibition of Wnt/β-catenin signaling in colorectal cancer”.

(Values after publication PMC12209456, “Serine/threonine/tyrosine kinase 1 drives pancreatic carcinogenesis via GSK3β sequestration-mediated Wnt/β-catenin pathway hyperactivation” (Signal Transduction and Targeted Therapy, 2025).)
